According to publication PMC8429728, “TNK1 is a ubiquitin-binding and 14-3-3-regulated kinase that can be targeted to block tumor growth” (Nature Communications, 2021):

Assays:
Test in all cases: biochemical
Parameters in all cases: Reaction Biology kinase panel, control compounds in 10-dose IC50 mode at Km ATP
ARAF = target: T1, ARAF (Homo sapiens, UniProt P10398)
T1 sequence (P10398 1-606): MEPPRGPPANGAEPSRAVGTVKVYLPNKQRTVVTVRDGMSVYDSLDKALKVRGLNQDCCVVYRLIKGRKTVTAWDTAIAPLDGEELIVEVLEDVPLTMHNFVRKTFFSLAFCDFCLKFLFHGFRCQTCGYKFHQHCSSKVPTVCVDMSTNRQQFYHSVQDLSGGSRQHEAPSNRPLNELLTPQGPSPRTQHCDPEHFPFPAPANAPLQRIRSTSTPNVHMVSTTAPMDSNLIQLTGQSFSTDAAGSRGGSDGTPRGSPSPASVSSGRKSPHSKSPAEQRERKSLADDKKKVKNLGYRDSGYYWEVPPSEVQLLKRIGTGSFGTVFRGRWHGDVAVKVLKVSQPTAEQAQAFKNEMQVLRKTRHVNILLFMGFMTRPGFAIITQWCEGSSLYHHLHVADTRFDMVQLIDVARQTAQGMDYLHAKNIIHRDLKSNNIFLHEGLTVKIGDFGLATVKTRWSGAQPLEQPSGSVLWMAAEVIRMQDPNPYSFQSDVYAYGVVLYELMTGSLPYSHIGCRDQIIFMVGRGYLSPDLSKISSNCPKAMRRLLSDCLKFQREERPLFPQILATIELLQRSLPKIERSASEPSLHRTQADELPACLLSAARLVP

CK2a = target: T2, CK2a (Homo sapiens, UniProt P68400)
T2 construct: gene CSNK2A1

DYRK4 = target: T3, DYRK4 (Homo sapiens, UniProt Q9NR20)
T3 sequence (Q9NR20 1-520): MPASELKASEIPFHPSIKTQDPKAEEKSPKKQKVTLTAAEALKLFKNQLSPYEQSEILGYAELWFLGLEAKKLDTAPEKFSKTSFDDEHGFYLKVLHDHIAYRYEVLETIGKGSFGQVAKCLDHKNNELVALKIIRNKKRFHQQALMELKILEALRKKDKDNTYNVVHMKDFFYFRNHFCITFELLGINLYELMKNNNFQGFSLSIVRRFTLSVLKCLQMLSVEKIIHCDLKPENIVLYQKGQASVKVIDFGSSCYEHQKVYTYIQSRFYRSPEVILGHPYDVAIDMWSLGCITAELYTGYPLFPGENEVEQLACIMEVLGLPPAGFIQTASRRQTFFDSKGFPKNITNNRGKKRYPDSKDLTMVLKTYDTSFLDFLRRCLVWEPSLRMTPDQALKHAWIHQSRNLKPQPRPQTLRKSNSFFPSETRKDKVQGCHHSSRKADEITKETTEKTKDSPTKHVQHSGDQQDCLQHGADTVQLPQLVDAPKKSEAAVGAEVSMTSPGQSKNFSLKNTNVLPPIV

ZAK/MLTK = target: T4, ZAK/MLTK (Homo sapiens, UniProt Q9NYL2)
T4 construct: gene MAP3K20

TGFBR2 = TGFBR2 (Homo sapiens, UniProt P37173)
Sequence of TGFBR2 (P37173 whole entry): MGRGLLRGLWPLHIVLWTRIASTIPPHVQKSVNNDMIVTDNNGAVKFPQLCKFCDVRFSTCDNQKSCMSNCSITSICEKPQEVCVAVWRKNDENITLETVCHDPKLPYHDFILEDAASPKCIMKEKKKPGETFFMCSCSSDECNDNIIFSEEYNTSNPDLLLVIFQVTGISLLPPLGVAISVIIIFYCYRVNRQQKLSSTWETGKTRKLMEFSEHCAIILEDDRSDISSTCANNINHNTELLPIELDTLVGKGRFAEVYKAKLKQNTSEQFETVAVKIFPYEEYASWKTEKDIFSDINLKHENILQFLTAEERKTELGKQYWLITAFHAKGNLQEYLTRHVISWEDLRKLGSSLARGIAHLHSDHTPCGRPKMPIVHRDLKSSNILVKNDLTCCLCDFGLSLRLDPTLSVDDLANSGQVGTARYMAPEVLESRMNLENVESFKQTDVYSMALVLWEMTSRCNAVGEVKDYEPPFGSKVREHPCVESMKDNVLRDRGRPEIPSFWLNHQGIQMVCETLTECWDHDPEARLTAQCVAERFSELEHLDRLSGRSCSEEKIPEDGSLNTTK

COT1/MAP3K8 = COT1/MAP3K8 (Homo sapiens, UniProt P41279)
Sequence of COT1/MAP3K8 (P41279 whole entry): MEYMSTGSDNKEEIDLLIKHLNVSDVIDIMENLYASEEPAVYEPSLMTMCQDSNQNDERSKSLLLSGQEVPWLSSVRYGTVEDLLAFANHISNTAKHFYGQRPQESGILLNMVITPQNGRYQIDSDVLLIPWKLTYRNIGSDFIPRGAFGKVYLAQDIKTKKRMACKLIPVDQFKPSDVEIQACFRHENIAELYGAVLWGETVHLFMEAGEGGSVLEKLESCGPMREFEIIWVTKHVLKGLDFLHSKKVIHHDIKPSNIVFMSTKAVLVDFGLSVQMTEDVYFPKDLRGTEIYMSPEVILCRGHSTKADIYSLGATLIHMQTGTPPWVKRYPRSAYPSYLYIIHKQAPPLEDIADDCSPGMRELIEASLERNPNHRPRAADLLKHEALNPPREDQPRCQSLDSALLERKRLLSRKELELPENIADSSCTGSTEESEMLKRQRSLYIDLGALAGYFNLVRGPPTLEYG

HIPK1 = HIPK1 (Homo sapiens, UniProt Q86Z02)
HPK1/MAP4K1 = HPK1/MAP4K1 (Homo sapiens, UniProt Q92918)
Sequence of HPK1/MAP4K1 (Q92918 whole entry): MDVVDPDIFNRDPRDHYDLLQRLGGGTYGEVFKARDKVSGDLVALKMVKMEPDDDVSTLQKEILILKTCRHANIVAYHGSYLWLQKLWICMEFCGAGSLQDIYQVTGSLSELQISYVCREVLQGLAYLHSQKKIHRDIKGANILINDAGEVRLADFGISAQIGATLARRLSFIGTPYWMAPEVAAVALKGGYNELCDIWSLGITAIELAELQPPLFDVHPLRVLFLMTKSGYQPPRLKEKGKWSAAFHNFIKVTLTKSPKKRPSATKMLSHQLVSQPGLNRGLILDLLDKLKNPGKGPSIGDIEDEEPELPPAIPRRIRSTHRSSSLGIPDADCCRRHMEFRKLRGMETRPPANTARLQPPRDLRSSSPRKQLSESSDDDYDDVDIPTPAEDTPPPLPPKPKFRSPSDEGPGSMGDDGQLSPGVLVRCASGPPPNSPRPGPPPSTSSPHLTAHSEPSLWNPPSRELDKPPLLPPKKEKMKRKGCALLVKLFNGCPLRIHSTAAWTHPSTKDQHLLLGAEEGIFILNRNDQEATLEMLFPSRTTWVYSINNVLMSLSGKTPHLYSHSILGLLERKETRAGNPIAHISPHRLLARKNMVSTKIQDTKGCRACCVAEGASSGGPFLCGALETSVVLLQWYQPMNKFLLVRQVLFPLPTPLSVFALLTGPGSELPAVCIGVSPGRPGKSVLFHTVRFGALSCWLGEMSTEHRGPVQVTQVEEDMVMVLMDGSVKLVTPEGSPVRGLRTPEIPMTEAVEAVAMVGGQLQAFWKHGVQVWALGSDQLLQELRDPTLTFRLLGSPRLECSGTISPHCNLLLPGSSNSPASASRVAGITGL

LOK/STK10 = LOK/STK10 (Homo sapiens, UniProt O94804)
Sequence of LOK/STK10 (O94804 whole entry): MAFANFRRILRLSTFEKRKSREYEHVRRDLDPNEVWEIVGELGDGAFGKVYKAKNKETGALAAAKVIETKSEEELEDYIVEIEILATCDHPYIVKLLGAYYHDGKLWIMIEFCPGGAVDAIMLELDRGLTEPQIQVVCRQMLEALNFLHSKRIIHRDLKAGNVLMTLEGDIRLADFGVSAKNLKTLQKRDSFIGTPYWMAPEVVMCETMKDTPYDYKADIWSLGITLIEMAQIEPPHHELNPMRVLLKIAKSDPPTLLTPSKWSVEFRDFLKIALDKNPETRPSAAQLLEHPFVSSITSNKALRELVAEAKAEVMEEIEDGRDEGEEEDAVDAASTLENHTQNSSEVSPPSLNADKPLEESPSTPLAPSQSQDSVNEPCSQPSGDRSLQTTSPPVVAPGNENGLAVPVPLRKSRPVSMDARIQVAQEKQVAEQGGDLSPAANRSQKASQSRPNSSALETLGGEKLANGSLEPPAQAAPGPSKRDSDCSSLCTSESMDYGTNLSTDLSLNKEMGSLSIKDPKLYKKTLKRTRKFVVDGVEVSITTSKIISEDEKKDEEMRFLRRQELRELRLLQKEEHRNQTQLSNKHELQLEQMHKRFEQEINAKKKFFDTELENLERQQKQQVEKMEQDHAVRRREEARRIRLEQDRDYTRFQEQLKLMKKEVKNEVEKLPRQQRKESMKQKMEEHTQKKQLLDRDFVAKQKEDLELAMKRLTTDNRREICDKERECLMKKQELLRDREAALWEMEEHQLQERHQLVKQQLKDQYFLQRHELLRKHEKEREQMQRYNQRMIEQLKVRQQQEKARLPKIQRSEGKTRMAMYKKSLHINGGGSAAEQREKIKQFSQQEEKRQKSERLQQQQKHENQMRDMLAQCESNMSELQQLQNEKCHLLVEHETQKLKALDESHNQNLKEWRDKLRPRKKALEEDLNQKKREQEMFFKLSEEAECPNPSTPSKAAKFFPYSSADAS

VRK2 = VRK2 (Homo sapiens, UniProt Q86Y07)
Sequence of VRK2 (Q86Y07 whole entry): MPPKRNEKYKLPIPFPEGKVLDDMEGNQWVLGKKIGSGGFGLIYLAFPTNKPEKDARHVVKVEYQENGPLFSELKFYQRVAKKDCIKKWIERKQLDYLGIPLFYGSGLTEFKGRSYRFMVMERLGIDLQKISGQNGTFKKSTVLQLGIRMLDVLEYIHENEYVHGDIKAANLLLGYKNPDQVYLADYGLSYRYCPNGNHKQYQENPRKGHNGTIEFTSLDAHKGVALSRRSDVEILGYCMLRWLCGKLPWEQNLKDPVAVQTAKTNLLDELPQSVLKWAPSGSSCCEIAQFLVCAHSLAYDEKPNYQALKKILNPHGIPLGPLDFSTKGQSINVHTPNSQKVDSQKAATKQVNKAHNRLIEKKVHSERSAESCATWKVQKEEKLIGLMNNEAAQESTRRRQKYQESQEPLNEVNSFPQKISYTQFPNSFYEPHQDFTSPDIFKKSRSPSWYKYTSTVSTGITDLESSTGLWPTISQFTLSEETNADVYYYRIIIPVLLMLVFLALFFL

TTBK2 = TTBK2 (Homo sapiens, UniProt Q6IQ55)
Sequence of TTBK2 (Q6IQ55 whole entry): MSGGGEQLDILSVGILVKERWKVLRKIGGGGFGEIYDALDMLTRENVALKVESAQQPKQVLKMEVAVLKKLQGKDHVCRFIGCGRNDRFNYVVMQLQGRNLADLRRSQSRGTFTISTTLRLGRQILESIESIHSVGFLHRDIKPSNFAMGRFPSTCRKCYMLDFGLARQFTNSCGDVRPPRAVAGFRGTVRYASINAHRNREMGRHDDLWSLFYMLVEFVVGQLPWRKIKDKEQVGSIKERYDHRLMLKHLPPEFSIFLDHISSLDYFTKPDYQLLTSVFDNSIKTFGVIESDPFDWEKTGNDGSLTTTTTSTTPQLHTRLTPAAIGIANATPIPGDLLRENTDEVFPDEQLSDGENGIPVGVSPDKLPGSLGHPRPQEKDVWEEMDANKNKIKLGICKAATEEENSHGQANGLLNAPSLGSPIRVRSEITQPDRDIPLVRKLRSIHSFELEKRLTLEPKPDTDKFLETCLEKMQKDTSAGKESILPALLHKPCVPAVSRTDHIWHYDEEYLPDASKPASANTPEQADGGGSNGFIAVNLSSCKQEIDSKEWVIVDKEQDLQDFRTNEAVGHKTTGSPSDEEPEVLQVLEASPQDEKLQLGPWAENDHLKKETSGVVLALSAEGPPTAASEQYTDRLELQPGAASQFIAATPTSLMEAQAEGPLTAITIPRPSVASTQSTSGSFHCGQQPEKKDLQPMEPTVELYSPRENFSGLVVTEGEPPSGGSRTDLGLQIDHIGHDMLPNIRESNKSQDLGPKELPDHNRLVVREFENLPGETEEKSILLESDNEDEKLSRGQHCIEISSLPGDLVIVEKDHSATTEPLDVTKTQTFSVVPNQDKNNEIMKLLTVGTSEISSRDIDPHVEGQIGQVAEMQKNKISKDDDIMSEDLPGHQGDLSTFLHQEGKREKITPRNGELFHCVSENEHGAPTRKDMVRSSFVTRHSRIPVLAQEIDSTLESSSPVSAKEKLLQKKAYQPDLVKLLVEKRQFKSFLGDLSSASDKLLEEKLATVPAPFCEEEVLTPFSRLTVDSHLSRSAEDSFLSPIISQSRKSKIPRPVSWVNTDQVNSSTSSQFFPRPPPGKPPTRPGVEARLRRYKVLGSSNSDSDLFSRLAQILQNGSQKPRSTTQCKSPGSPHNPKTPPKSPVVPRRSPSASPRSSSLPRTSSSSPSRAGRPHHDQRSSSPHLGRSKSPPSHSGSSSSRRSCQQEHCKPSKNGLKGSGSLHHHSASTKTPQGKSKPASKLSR

TTBK1 = TTBK1 (Homo sapiens, UniProt Q5TCY1); conditions: control compound, Km ATP; read-out: IC50 (M) Control Cmpd
ERK1 = target: T5, ERK1 (Homo sapiens, UniProt P27361)
T5 construct: gene MAPK3
T5 sequence (P27361 whole entry): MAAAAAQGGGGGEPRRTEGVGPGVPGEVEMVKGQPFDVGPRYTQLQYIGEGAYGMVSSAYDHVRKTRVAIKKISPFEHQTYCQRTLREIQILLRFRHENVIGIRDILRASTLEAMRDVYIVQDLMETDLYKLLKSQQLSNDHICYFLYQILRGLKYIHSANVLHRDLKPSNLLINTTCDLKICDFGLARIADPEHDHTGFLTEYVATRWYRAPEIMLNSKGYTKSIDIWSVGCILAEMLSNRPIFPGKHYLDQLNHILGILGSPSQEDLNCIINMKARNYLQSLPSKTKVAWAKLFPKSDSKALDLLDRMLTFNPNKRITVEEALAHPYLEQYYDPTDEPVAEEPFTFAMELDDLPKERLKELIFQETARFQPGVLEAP

PKMYT1 = target: T6, PKMYT1 (Homo sapiens, UniProt Q99640)
T6 sequence (Q99640 1-499): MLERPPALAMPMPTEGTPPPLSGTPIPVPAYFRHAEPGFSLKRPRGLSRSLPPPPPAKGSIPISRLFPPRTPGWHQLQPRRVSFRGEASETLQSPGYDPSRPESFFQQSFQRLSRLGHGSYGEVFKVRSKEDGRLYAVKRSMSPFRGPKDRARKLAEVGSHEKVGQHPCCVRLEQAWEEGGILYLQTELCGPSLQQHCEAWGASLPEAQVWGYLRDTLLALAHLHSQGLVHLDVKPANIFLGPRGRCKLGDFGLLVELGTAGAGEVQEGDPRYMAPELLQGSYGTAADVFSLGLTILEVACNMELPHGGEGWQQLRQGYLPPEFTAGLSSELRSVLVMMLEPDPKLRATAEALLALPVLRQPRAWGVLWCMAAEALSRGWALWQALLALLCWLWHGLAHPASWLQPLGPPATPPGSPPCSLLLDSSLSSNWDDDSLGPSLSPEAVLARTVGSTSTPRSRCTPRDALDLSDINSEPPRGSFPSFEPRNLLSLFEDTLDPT

Question: With O=C1Nc2ccc(I)cc2/C1=C/c1cc(Br)c(O)c(Br)c1 [GW5074] as the compound, how does the IC50 (ARAF) read?
Answer: Its IC50 is 15.1 nM.

Question: And the IC50 (CK2a)?
Answer: Its IC50 is 231 nM.

Question: What about the IC50 (DYRK4) of the same compound?
Answer: The IC50 was 1610 nM.

Question: And the IC50 (ZAK/MLTK)?
Answer: The IC50 was 3.11 µM.

Question: c1ccc2c(-c3cnn4cc(-c5ccc(N6CCNCC6)cc5)cnc34)ccnc2c1 [LDN193189] was tested. Which IC50 (TGFBR2) did it give?
Answer: The IC50 was 54.8 nM.

Question: Which IC50 (COT1/MAP3K8) does the source give for Cn1cc(C2=C(c3cn(CCCSC(=N)N)c4ccccc34)C(=O)NC2=O)c2ccccc21 [RO-31-8220] here?
Answer: Its IC50 is 10.2 µM.

Question: What about the IC50 (HIPK1) of the same compound?
Answer: The IC50 was 3.06 µM.

Question: And the IC50 (HPK1/MAP4K1)?
Answer: The IC50 was 51 nM.

Question: What about the IC50 (LOK/STK10) of the same compound?
Answer: The IC50 was 141 nM.

Question: What about the IC50 (VRK2) of the same compound?
Answer: The IC50 was 5.73 µM.

Question: Which IC50 (TTBK2) does the source give for Oc1ccc(-c2nc(-c3ccncc3)c(-c3ccc(F)cc3)[nH]2)cc1 [SB202190] here?
Answer: Its IC50 is 5.47 µM.

Question: And the IC50 (TTBK1)?
Answer: Its IC50 is 1.31e-05 M.

Question: Which IC50 (ERK1) does the source give for O=C(Nc1ccc2[nH]nc(-c3ccncc3)c2c1)[C@@H]1CCN(CC(=O)N2CCN(c3ccc(-c4ncccn4)cc3)CC2)C1 [SCH772984] here?
Answer: Its IC50 is 9.34 nM.

Question: For CN[C@@H]1C[C@H]2O[C@@](C)([C@@H]1OC)n1c3ccccc3c3c4c(c5c6ccccc6n2c5c31)C(=O)NC4 [STAUROSPORINE], which IC50 (PKMYT1) is on record?
Answer: The IC50 was 10.4 nM.
